Reference: patent US20220160651A1, “RAPIDLY IMPROVING ENDOTHELIAL FUNCTION, REDUCING ARTERIAL STIFFNESS AND REVERSING CALCIFICATION OF BLOOD VESSELS BY ADMINISTERING VITAMIN K” (KAYDENCE PHARMA AS, priority 2019, published 2022)
Where “and” joins values, the source holds several entries; their conditions need not be identical. Equal entries are not always repeated.

Key:
[1] = test system: thrombin generation in platelet-poor mice plasma; assay: Thrombin generation by calibrated automated thrombogram (CAT); format: in vivo; conditions: either dose (0.03 or 10 mg/kg b.w./day), eight weeks
Procedure: Thrombin generation was measured in platelet-poor mice plasma using calibrated automated thrombography (CAT) technique as described in Hemker H C, Giesen P, Al Dieri R, Regnault V, de Smedt E, Wagenvoord R, et al. Calibrated automated thrombin generation measurement in clotting plasma. Pathophysiol Haemost Thromb 2003; 33:4-15. doi:71636. Thrombin generation was activated by mixing 21 μl of diluted plasma (1:1 with BSAS buffer) with 7 μIL of fluorogenic substrate (Z-Gly-Gly-Arg-AMC, 16.6 mM) and 14 μl of trigger solution containing phospholipids, tissue factor and CaCl2 (4 μM, […] and 16.6 mM, respectively). In the calibration wells, the 14 μl of reagents were replaced with calibrator (102 nM). Immediately after the activation, 5 μl of the mixture was pipetted on paper disks in a flat bottom 96-well polystyrene plate and covered with 40 μl of mineral oil. Fluorescent signals were measured using the Fluoroskan Ascent software (Thermo Labsystems, Helsinki, Finland) and transformed into thrombin concentration as described in Hemker H C, Kremers R. Data management in Thrombin Generation. Thromb Res 2013; 131:3-11. doi:10.1016/j.thromres.2012.10.011. The parameters analyzed included endogenous thrombin potential (ETP), peak thrombin concentration (peak), and lag time.

ApoE/LDLR−/− mice = assay: MRI-based assessment of NO-dependent vasodilatation in BCA and LCA after acetylcholine (Example 2); format: in vivo; conditions: two months, 25 min after Ach
Procedure: The effects of low-doses (0.03 mg/kg b.w./day) as well as high-doses (10 mg/kg b.w./day) of vitamin K2 (MK-7), on endothelial function in mice with pre-established atherosclerosis was assessed. The mice were treated with K2 (MK-7) for two months and endothelial function was analyzed in vivo based on functional study (MRI based assessment of NO-dependent vasodilation) as well as by biochemical analysis (plasma nitrate and nitrite concentration). In addition, a comprehensive qualitative and quantitative histological analysis of the effects of K2 (MK-7) on vascular wall structure and atherosclerosis plaque composition was performed.
Endpoint assays: Magnetic resonance imaging (MRI)-based assessment of nitric oxide (NO)-dependent vasodilatation in brachiocephalic (BCA) and left common carotid artery (LCA) after acetylcholine (Ach) administration—by MRI 9.4T scanner, total time of measurements: 114 h (1.5 h per animal), acetylcholine (Ach, 16.6 mg/kg b.w.)
Studies were performed on 4-month old female ApoE/LDLR−/− mice, the model initially described by Ishibashi S, Herz J, Maeda N, Goldstein J, Brown M. The two-receptor model of lipoprotein clearance: tests of the hypothesis in “knockout” mice lacking the low density lipoprotein receptor, apolipoprotein E, or both proteins. Proc Natl Acad Sci USA 1994; 10:4431-5., and extensively characterized in previous studies, [see Kostogrys RB, Franczyk-Zarow M, Gasior-Glogowska M, Kus E, Jasztal A, Wrobel T P, et al. Anti-atherosclerotic effects of pravastatin in brachiocephalic artery in comparison with en face aorta and aortic roots in ApoE/LDLR−/− mice. Pharmacol Reports 2017; 69:112-8. doi:10.1016/j.pharep.2016.09.014; Tyrankiewicz U, Skorka T, Orzylowska A, Jablonska M, Jasinski K, Jasztal A, et al. Comprehensive MRI for the detection of subtle alterations in diastolic cardiac function in apoE/LDLR −/− mice with advanced atherosclerosis. […] End-diastolic volumes of BCA and LCA were analyzed using ImageJ software (1.46r NIH Bethesda, Md., USA) and scripts written in Matlab (MathWorks, Natick, Mass., USA) (FIG. 1A).

What does the source list for `CC(C)=CCC/C(C)=C/CC/C(C)=C/CC/C(C)=C/CC/C(C)=C/CC/C(C)=C/CC/C(C)=C/CC1=C(C)C(=O)c2ccccc2C1=O` [MK-7, menaquinone-7]?
thrombin generation [1]: did not affect; vessel volume change of BCA after Ach injection (ApoE/LDLR−/− mice; high dose 10 mg/kg b.w./day): 3.12%; vessel volume change of LCA after Ach injection (ApoE/LDLR−/− mice; high dose 10 mg/kg b.w./day): 4.45%; vessel volume change of LCA after Ach injection (ApoE/LDLR−/− mice; low dose 0.03 mg/kg b.w./day, listed as vitamin MK-7, 0.03 mg/kg/day): ~−3% and −3.92%
